The subject of series [1] is spontaneous firing of Aβ and Aδ neurons. Briefly: In vitro single fiber recording of spontaneous discharges in excised dorsal root/DRG/spinal nerve preparation from SNL rats. Type of series: cell-based, rat.
In another series the test system is SNL rats. Nature of the series: Tactile allodynia (von Frey) in SNL (Chung) neuropathic pain model. Format: in vivo, rat. As for the experimental part: Preparation of SNL (spinal nerve ligation) model: All studies were conducted in keeping with the guidelines of the Institutional Animal Care Committees of the University of California, San Diego and RWJPRI. Male Harlan Sprague-Dawley rats, 100-150 g, were housed in cages with solid bottoms and sawdust bedding, with a 12/12 h reversed light cycle (lights on 2100-900), and allowed free access to food pellets and water. Animals were housed in groups of 2 after surgical interventions. A surgical neuropathy was created as follows, to create a model commonly referred to as the SNL, or spinal nerve ligation model, also commonly referred to as the Chung model. Under isoflurane/oxygen anesthesia, a dorsal midline incision was made from approximately L3-S2. Using a mixture of sharp and blunt dissection, the left L6/S1 posterior interarticular process was exposed and resected to permit adequate visualization of the L6 transverse process, which was gently removed. Careful teasing of the underlying fascia exposed the left L4 and L5 spinal nerves distal to their emergence from the intervertebral foramina. The nerves were gently separated, and the L5 and in some cases either the L4 (for in vitro electrophysiology recordings) or the L6 nerve firmly ligated with 6-0 silk suture material. The wound was then inspected for hemostasis and closed in two layers. Animals with thresholds greater than 4 g were considered unsuccessful preparations(Chaplan et al., (1994) Journal of Neuroscience Methods 53: 55-63).
Behavioral assessment: Behavioral signs of allodynia were documented as follows. Briefly, rats were transferred to a testing cage with a wire mesh bottom and allowed to acclimate for 10-15 minutes. […] Lifting of the paw was recorded as a positive response and the next lightest filament chosen for the next measurement. […]

Another series concerns CFA-injected rats. Nature of the series: Tactile allodynia (von Frey) in complete Freund's adjuvant (CFA) paw model of inflammatory pain. As to conditions: i.p.; ZD7288 10 mg/kg, ibuprofen 30 mg/kg, morphine 3 mg/kg, gabapentin 100 mg/kg. Type of series: in vivo, rat.
The test system of series [2] is rat carrageenan model of hindpaw inflammation. Briefly: Thermal hyperalgesia (modified Hargreaves apparatus) in rat carrageenan model of hindpaw inflammation. As to conditions: 10 mg/kg i.p. Format: in vivo. As for the experimental part:
However, blockade of HCN channels with ZD7288 at 10 mg/kg, i.p., had no effect on thermal hyperalgesia (measured using a modified Hargreaves apparatus) in two different models of inflammatory pain: the rat carrageenan model of hindpaw inflammation, and the rat complete Freund's adjuvant (CFA) model of hindpaw inflammation. As shown supra, HCN blockade also had little effect on acute thermally evoked pain in the hot plate test.
On the technique in general: Carrageenan injected into the paw causes an acute inflammation.

The source of these data is patent publication US20030022812A1, “Treating pain by targeting hyperpolarization-activated, cyclic nucleotide-gated channels” (priority 2001, published 2003).

Entries after “also recorded” stand apart in the source; their conditions may differ.

As for `CCN(c1ccccc1)c1cc(=NC)n(C)c(C)n1.Cl` [ZD7288], in series [1] (100 μM bath application for 5 min), the “suppression of spontaneous (ectopic) discharges of Aβ fibers” value is listed as “complete suppression; also recorded: completely suppressed”. For the same compound, in series [1] (100 micromolar), the “effect on spontaneous firing of Aδ fiber” value is recorded as “attenuation of firing” and the “time to complete suppression of ectopic firing, Aβ fiber” value is 3 to 4 min. In addition, in series [1] (after application of ZD7288), the “conduction blockade of evoked action potentials” value is “no conduction blockade”. In the series on SNL rats (i.p.), the “efficacy of allodynia suppression (% MPE)” value was 75.7+/−15.4%. In addition, in the series with SNL rats (i.p. 1, 3, 10 mg/kg), the “suppression of tactile allodynia” value was “blocked in a dose dependent manner; also recorded: suppressed the tactile allodynia”. For the same compound, the “untoward behavioral effects / motor function” value with SNL rats (i.p., up to 10 mg/kg) is “No untoward behavioral effects; also recorded: without overt adverse effects on behavior”. For the same compound, the “suppression of CFA-induced tactile allodynia” value in the series with CFA-injected rats is “suppressed allodynia; also recorded: markedly suppressed”. Also, the “effect on thermal hyperalgesia” value in series [2] is “no effect”.
